Source: a melting point compilation (Tetko et al.; mined from patent text by program, amines drawn as free bases though some values may be those of a salt)

SMILES | melting point [°C]
CC(=O)Nc1cc2c(cc1O)CCN(Cc1ccccc1)CC2c1ccccc1 (stereo unspecified) | 180
COc1ccc(-c2nc(COc3ccc(CCCn4ccnc4)cc3)co2)s1 | 96 to 97
Cc1nc(NC(=O)c2ccccc2)sc1C(=O)NNC(=O)c1ccccc1 | 258 to 260
CCOC(=O)C(C#N)=Cc1c(OC)nc2c(C)cccn12 | 127 to 129
CCc1c(NC(=O)c2ccc(Br)cc2)ccc2cc(CO)cnc12 | 202 to 204
O=c1nc(-c2ccc(Sc3ccc(Cl)cc3)nc2)sc2ccccc12 | 222
CCn1nc(-c2ccccc2)c(C(=O)CCc2ccccc2)c(N)c1=O | 115 to 116
COc1c(C)cc2c(c1C)Cc1c-2[nH]c2ccccc12 | 177
CNC(=O)C(=O)CCCCCCS(=O)(=O)c1ccc2ccccc2c1 | 108 to 109
COC(=O)C1(n2c(=O)[nH]c3ccccc3c2=O)CCCCC1 | 145 to 147
COc1cc(C=CC(=O)Nc2c(CCO)nc3c(C)cc(C)cc3c2-c2ccccc2Cl)ccc1O | 133 to 134
N#CC=C(C#N)Nc1ccccc1 | 123 to 126
CN1CCN(C2=Cc3cc(Cl)ccc3C(=CC#N)c3ccccc32)CC1 | 196 to 198
CCN(CC)c1ncnc2c1ncn2C1CC(F)C(CO)O1 (stereo unspecified) | 114 to 115
CCC(CC)n1cc(Br)nc(N2CCc3cc(Cl)cc(Cl)c32)c1=O | 158 to 160
CC1=C(c2ccc(O)cc2)C(=O)c2cc(O)ccc21 | 125 to 129
CC(=O)Oc1ccc(-c2c3ccccc3c(Br)c3sc4ccccc4c23)cc1OC(C)=O | 178 to 179
Clc1cccc2c1Oc1ccccc1N=C2N1CCN2CCC[C@H]2C1 | 150 to 151
CCOC(=O)C(C(=O)OCC)c1ccc(Br)cc1[N+](=O)[O-] | 54 to 55
CCCCc1nc2c(N)nc3cccnc3c2n1CCCCNC(=O)Cn1cc(C)c(O)nc1=O | 242 to 244
O=C(OCCc1ccccc1)c1ccc2c(O)c(O)ccc2c1 | 164 to 166
CC(=O)OC1CCC2(C)C(=CC(=O)C3C2CCC2(C)C(C(C)CCCC(C)C)CCC32)C1 (stereo unspecified) | 151 to 154
O=C(O)CCCOc1ccc(-c2ccc(-c3c(Cc4ccccc4)sc4ccccc34)cc2)cc1Br | 135 to 137
CC(C)OC(=O)COc1ccc(CCNS(=O)(=O)c2ccccc2)cc1 | 56 to 57
CCOC(=O)c1cc(NC(C)=O)c(=O)[nH]c1C(=O)OCC | 149 to 151
CC(C)CN(C)c1cc2c(cc1C#N)NC(=O)CC(c1cccc(-n3nncc3CN3CCCC3)c1)=N2 | 174

SMILES | melting point [°C]
CC(C)Nc1cccnc1N1CCN(C(=O)c2ccc(C(=O)N(CCO)Cc3ccccc3)cc2)CC1 | 99 to 101
N#Cc1c[nH]c(Cl)c1-c1ccccc1 | 140 to 142
Cc1nnc(-c2ccc3ncn(C4CCN(Cc5ccccc5)CC4)c3c2)o1 | 173 to 174
COC(=O)c1sccc1S(=O)(=O)NC(=O)Nc1nc(C)cc(C)n1 | 191 to 193
CCCn1c(COCC)nc2c(N)nc3cc(OC4CCN(C(=O)OC(C)(C)C)CC4)ccc3c21 | 194 to 195
CCOC(=O)c1nc2c(=O)[nH]c3cc(S(C)(=O)=O)ccc3n2c1C | > 250
CCOC(=O)c1cnn(-c2c(Cl)cc(C(F)(F)F)cc2Cl)c1N | 131 to 134
CCOC(=O)COc1ccc2cc(S(N)(=O)=O)sc2c1 | 182 to 184
CN(C)C(=O)c1cn(-c2cc3c(=O)n(NS(C)(=O)=O)c(=O)[nH]c3cc2C(F)(F)F)cn1 | 284 to 286
S=C(Nc1ccccc1)OC1CN2CCC1CC2 (stereo unspecified) | 132 to 133
CCC1CCCC(C)C1=NC(C)COC (stereo unspecified) | 109 to 113
CCOC(=O)c1c(NCCC(=O)c2ccccc2)c2c(Cl)cc(Cl)cc2n1C(=O)OC(C)(C)C | 130 to 131
CCC(O)(c1ccc(OCc2cccc(C)n2)cc1)c1ccccc1C(F)(F)F (stereo unspecified) | 128 to 129
CC(NC(=O)C(NC(=O)OCC1c2ccccc2-c2ccccc21)C(Cc1ccccc1)C(=O)O)C(=O)O (stereo unspecified) | 114 to 116
COC(=O)Cc1cc(OC)c(OC)cc1[N+](=O)[O-] | 110 to 111
O=C(Nc1ccc(F)c(C(F)(F)F)c1)C1C(=O)C2CCC(C2)C1=O (stereo unspecified) | 97 to 100
N#Cc1cc(C(F)(F)F)cc(Cl)c1F | 150 to 152
CCN1CSC(=Cc2cc(C(C)(C)C)c(O)c(C(C)(C)C)c2)C1=O | 169 to 172
CCC12CCC3C4CCC(=O)C=C4CCC3C1CCC2OC1CCCCO1 (stereo unspecified) | 148 to 152
COCc1c(C(=O)OC(C)(C)C)ncc2[nH]c3ccc(OCc4ccccc4)cc3c12 | 160 to 167
CC(C)n1nc(-c2nc(C#N)c(C#N)nc2-c2ccccc2Br)ccc1=O | 160 to 161
CC(=O)SCCC(=O)N1c2ccccc2C(C)(C)C1C(N)=O (stereo unspecified) | 156 to 158
CC1Oc2ccc(C3=NNC(=O)CC3)cc2N(C)C1=O (stereo unspecified) | 210 to 211
CCOC(=O)C1COc2cc(C(C)=O)ccc2O1 (stereo unspecified) | 60
Cc1ccsc1C=C1C(=O)COC1=O | 164 to 166
CCOC(=O)C1Oc2ccc(Cl)c(Cl)c2O1 (stereo unspecified) | 58 to 61

SMILES | melting point [°C]
Cc1cccc2c1Sc1c(C)cccc1N2 | 140 to 141
CC(C)(C)OC(=O)NCc1ccc2cc(O)ccc2c1 | 173 to 174
CC(C)(C)OC(=O)C(C(=O)O)c1cccc(N)c1 (stereo unspecified) | 105
COC(=O)C(=Cc1ccc(F)c(Cl)c1)N=[N+]=[N-] | 72 to 74
CN1CC(C(=O)c2oc(C3CCS(=O)(=O)CC3)cc2Cc2ccc(F)cc2)=C(O)C1=O | 200 to 203
O=C1C(=O)N(CCCCN2CCN(C(c3ccccc3)c3ccccc3)CC2)c2ccc(Br)cc21 | 132 to 133
Nc1cccc(C2(O)CCOCC2)c1 | 154 to 155
CCn1c2c(c3ccccc31)CCSC2(C)CCN(C)C (stereo unspecified) | 86 to 88
CCCCCCCCCCCCCCCCC[C@@H](O)CC(=O)OC | 64 to 64.5
O=C(O)c1cccc2oc(-c3ccccc3OCc3ccccc3)nc12 | 103 to 104
CCNC(=O)N(CCO)Cc1cc([N+](=O)[O-])ccc1OC | 93 to 94
Cc1ccc(C2c3c(C)c(N4Cc5cc(Cl)c(Cl)cc5C4)c(C)c(C)c3OC2(C)C)cc1 (stereo unspecified) | 201 to 203
CCN1C(=O)C(C)(C)C(=O)N(C)c2cc(C(=O)O)ccc21 | 296 to 299
O=C1c2cc(Cl)ccc2CN2CCC(=NO)C12 (stereo unspecified) | 130 to 136
Nc1cccc2c1NC(=O)C2 | 248 to 251
CO/C(=C\C=C\c1cc2ccccc2[nH]1)C(=O)NCc1ccccc1 | 204 to 205
COc1ccc(CCC(=O)O)c(Cl)c1Cl | 141 to 143
COC(=O)c1ccc(OC)cc1-c1ccc(C(F)(F)F)cc1 | 93 to 94
Cc1cccc(SCc2ccc3nc(NC4CCN(C)CC4)n(Cc4nc(C)ccc4O)c3c2)c1 | 202
FC(F)(F)C=NNc1c(Cl)cc(C(F)(F)F)cc1Cl | 45 to 46
Cc1cc(-c2nc3cccnn3c2-c2ccnc(NC(=O)CC(F)(F)F)c2)ccc1F | 220 to 221
O=c1nc(-c2cccc(CN3CCC(O)(c4ccc(Cl)cc4)CC3)n2)sc2ccccc12 | 151 to 153
NC(=O)c1nc(-c2cccnc2)nc2c1[nH]c(=O)n2[C@H]1CC[C@H](O)CC1 | 331 to 333
COc1cccc(-c2[nH]c3ccc(OCc4ccccc4)cc3c2C)c1 | 107 to 109
O=C(CS(=O)(=O)C(c1ccc(Cl)cc1)c1ccc(Cl)cc1)C(F)(F)F | 60 to 62
NCC1Cc2cccc(-c3cccc4ccccc34)c2O1 (stereo unspecified) | 120 to 124

SMILES | melting point [°C]
Cc1cncc(/C=C/c2cccc(F)c2)n1 | 43 to 44
CCOC(=O)c1cc(=O)c2c(ccc3nc(C(=O)OC)cc(Cl)c32)o1 | 193
CCOC(=O)N1Cc2ccccc2C(Oc2cccc(C(F)(F)F)c2)C1 (stereo unspecified) | 98 to 100
CCC1N=C(c2ccccc2Cl)c2cc(CCC(=O)O)sc2-n2c(C)nnc21 (stereo unspecified) | 218 to 220
Cn1cc(C2=C(c3c4n(c5ccccc35)CCN(C(=O)CNC(=O)C(F)(F)F)C4)C(=O)NC2=O)c2ccccc21 | 170 to 172
CN(CCc1ccccc1)C(=O)C(O)C(O)c1ccccc1 (stereo unspecified) | 145 to 147
O=S1(=O)N=C(c2ccccc2)c2ccccc21 | 118
CC(C)(Cn1cncn1)C(=O)C=Cc1ccc2ccccc2c1 | 103 to 104
COC(=O)c1cc(S(C)(=O)=O)ccc1OC1CCOC1=O (stereo unspecified) | 102 to 105
c1ccc(NCP(CNc2ccccc2)CNc2ccccc2)cc1 | 87 to 88
Cc1nc2c(N)nc3ccccc3c2n1CCCNC(=O)C(C)C | 239 to 240
CCCCc1nc(SC)c(C(=O)O)n1Cc1ccc(-c2ccccc2S(=O)(=O)NC(=O)NCCC)cc1 | 109 to 111
CCCn1c(=O)c2[nH]c(-c3cc(C)n(CC(=O)Nc4ccc(Br)cc4)n3)nc2n(CCC)c1=O | 270 to 273
CCOC(=O)CC[C@H](NC(=O)c1ccc2c(c1)CCN2Cc1cnc2nc(N)nc(N)c2n1)C(=O)OCC | 168 to 170
CCCc1nc(N)nc(N)c1N1CCN(c2ccc(C#N)cc2)CC1 | > 300
Cc1ccccc1CC(=NC#N)NC(NC(=O)Cc1cccc2ccccc12)C(C)(C)C (stereo unspecified) | 97 to 100
COc1cccc2c1C(=CC(=O)c1ccccc1)OC2=O | 165
Cc1cc2c(cc1-c1cccc(C#CC(=O)O)c1)C(C)(C)CCC2(C)C | 180 to 181
COC(=O)CCCCNC(=O)C(CS)Cc1ccccc1 (stereo unspecified) | 39 to 41
CCCC=NNc1cc2c(nn1)CCN(C(=O)c1ccc(-c3ccccc3)cc1)C2 | 260 to 262
CC(=O)OCCn1cc(-c2ccccc2)[nH]c1=O | 86 to 88
CN1CCCC(C2=C(C#N)C(c3cccc(C#N)c3Br)c3c[nH]nc3N2)C1 (stereo unspecified) | 174
CCCCOC(=O)Nc1cccc(C(=O)C=CN(C)C)c1 | 115 to 116
